Experimental data reported in patent US9248193B2, “Formulations of phenyl uracil compounds” (AbbVie Inc., priority 2011, dated 2016).

Assay: Light degradation under ICH photo condition
Type: physicochemical

Stability in solution upon exposure to light: may convert into an alternative isomer
SMILES: COc1c(/C=C/c2ccc(NS(C)(=O)=O)cc2)cc(-n2ccc(=O)[nH]c2=O)cc1C(C)(C)C [Compound A, (E)-N-(4-(3-tert-butyl-5-(2,4-dioxo-3,4-dihydropyrimidin-1(2H)-yl)-2-methoxystyryl)phenyl)methanesulfonamide]
